Read-outs that look alike come from different tables or passages of the source.
Key:
Format in all cases: binding
[1] = target: T1, HeLa cell extract proteins (Homo sapiens, UniProt P30050)
T1 construct: endogenous in cells; host or cells: HeLa cell extract

[2] = target: T2, HeLa cell extract proteins (Homo sapiens, UniProt P11142)
T2 construct: endogenous in cells; host or cells: HeLa cell extract

[3] = target: T3, HeLa cell extract proteins (Homo sapiens, UniProt Q96EN8)
T3 construct: endogenous in cells; host or cells: HeLa cell extract
T3 sequence (Q96EN8 1-888): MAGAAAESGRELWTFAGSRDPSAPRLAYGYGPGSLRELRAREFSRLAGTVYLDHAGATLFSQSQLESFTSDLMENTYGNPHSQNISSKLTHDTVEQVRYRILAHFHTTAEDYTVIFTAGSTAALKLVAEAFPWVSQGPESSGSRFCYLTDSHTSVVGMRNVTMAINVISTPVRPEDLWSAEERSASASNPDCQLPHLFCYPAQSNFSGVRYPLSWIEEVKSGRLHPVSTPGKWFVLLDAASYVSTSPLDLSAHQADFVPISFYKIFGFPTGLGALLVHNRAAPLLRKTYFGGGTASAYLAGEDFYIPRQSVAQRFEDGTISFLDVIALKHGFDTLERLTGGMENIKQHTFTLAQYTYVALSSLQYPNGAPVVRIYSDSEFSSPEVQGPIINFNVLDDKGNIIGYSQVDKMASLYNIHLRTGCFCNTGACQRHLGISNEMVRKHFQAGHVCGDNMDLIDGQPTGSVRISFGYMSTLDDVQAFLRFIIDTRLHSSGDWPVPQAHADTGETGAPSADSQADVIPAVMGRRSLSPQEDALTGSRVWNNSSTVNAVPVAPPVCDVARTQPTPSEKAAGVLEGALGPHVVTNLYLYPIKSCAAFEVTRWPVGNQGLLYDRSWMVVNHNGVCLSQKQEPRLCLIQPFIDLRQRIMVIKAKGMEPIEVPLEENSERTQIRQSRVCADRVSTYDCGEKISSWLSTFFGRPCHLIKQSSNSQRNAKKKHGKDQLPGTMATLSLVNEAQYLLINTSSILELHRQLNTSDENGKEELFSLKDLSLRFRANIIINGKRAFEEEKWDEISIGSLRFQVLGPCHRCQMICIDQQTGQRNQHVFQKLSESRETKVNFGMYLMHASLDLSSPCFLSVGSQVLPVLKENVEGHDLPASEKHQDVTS

[4] = target: T4, HeLa cell extract proteins (Homo sapiens, UniProt P30101)
T4 construct: endogenous in cells; host or cells: HeLa cell extract
T4 sequence (P30101 25-505): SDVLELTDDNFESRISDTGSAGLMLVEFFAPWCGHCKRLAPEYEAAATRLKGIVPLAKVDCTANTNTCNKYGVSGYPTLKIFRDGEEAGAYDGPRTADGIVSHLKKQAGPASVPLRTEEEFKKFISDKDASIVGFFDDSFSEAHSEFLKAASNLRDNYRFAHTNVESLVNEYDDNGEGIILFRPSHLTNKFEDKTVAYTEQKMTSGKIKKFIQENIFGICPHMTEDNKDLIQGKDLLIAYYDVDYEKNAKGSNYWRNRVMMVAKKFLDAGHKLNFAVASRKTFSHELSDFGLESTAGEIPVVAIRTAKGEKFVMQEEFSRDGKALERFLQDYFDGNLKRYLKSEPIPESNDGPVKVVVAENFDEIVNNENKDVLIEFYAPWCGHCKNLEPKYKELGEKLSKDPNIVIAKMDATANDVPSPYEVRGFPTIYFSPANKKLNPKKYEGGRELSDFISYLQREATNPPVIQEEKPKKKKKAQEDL

[5] = target: T5, HeLa cell extract proteins (Homo sapiens, UniProt P24863)
T5 construct: endogenous in cells; host or cells: HeLa cell extract
T5 sequence (P24863 1-283): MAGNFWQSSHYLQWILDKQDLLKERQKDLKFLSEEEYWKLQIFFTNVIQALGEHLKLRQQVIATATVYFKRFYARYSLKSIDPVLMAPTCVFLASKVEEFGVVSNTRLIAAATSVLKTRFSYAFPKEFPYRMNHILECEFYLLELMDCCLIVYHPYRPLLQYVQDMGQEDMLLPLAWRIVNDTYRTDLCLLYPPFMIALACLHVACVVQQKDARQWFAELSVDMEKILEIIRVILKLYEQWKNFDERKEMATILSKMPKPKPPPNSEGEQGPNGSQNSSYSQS

[6] = target: T6, HeLa cell extract proteins (Homo sapiens, UniProt O00299)
T6 construct: endogenous in cells; host or cells: HeLa cell extract

[7] = target: T7, HeLa cell extract proteins (Homo sapiens, UniProt P31948)
T7 construct: endogenous in cells; host or cells: HeLa cell extract
T7 sequence (P31948 whole entry): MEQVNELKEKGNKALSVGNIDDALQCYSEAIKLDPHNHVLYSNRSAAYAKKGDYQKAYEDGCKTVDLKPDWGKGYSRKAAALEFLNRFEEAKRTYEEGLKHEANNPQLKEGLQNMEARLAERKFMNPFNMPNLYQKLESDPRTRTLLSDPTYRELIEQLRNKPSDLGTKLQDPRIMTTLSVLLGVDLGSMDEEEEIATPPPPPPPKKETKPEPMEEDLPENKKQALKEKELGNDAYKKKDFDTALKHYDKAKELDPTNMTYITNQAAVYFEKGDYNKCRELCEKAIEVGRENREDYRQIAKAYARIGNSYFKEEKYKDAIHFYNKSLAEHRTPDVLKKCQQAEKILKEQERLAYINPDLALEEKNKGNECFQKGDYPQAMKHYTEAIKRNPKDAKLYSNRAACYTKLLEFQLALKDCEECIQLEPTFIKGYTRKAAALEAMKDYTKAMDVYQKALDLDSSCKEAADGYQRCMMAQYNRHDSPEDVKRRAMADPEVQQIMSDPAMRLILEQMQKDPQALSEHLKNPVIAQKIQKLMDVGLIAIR

[8] = target: T8, HeLa cell extract proteins (Homo sapiens, UniProt P55795)
T8 construct: endogenous in cells; host or cells: HeLa cell extract
T8 sequence (P55795 1-449): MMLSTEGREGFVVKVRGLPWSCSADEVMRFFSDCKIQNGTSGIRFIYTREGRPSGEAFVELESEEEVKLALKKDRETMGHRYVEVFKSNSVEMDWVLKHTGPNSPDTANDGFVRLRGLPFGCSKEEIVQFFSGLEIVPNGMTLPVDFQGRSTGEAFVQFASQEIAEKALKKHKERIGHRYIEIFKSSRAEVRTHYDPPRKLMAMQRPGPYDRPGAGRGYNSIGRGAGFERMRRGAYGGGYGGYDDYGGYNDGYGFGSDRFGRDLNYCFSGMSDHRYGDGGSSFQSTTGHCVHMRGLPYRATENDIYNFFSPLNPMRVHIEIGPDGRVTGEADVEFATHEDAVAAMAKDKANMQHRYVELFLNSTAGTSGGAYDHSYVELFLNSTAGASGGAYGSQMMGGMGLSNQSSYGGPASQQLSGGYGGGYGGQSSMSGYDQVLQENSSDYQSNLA

T2 sequence (P11142 whole entry): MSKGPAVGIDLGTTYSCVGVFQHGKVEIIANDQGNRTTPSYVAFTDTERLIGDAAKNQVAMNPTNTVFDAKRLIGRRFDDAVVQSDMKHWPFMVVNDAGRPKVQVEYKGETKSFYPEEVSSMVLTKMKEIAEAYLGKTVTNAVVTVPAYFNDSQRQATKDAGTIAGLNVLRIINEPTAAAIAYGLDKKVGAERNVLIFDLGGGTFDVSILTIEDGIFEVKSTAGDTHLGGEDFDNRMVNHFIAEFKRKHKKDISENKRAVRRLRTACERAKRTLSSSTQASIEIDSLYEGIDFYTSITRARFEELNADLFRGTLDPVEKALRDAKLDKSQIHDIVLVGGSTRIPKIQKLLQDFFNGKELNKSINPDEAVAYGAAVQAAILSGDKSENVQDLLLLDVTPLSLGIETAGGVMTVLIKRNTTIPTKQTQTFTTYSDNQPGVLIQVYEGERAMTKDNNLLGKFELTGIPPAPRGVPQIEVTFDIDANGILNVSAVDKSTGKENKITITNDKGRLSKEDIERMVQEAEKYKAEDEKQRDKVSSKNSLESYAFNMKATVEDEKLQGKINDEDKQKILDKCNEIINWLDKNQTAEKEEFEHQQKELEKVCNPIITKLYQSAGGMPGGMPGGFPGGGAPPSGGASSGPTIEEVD

SMILES: Nc1nc2c(c(=O)[nH]1)N(C=O)C(CNc1ccc(C(=O)N[C@@H](CCC(=O)O)C(=O)O)cc1)CN2 (some centres unmarked) [LEU, leucovorin]
- fold changes relative to vehicle control ([1]; HeLa, captured protein RPL12): 1.11
- fold changes relative to vehicle control ([2]; HeLa, captured protein HSPA8): 1.07
- fold changes relative to vehicle control ([3]; HeLa, protein MOCOS): 1.07
- fold changes relative to vehicle control ([4]; protein PDIA3, HeLa): 0.94
- fold changes relative to vehicle control ([5]; HeLa, protein CCNC): 1.13
- fold changes relative to vehicle control ([6]; HeLa, protein CLIC1): 1.09
- fold changes relative to vehicle control ([7]; protein STIP1, HeLa): 0.97
- fold changes relative to vehicle control ([8]; HeLa, captured protein HNRNPH2): 0.9

SMILES: Nc1nc2[nH]cc(CCc3ccc(C(=O)N[C@@H](CCC(=O)O)C(=O)O)cc3)c2c(=O)[nH]1 [PTX, pemetrexed]
- fold changes relative to vehicle control [1]: 1.13
- fold changes relative to vehicle control [2]: 0.99
- fold changes relative to vehicle control [3]: 1.01
- fold changes relative to vehicle control [4]: 0.97
- fold changes relative to vehicle control [5]: 0.83
- fold changes relative to vehicle control [6]: 1.26
- fold changes relative to vehicle control [7]: 1.01
- fold changes relative to vehicle control [8]: 0.82

SMILES: CCCCCCOc1ccc(Cc2cnc(N)nc2N)cc1 [compound 1]
- fold changes relative to vehicle control ([1]; protein RPL12, HeLa): 1.15
- fold changes relative to vehicle control ([2]; protein HSPA8, HeLa): 0.99
- fold changes relative to vehicle control ([3]; HeLa, protein MOCOS): 1.03
- fold changes relative to vehicle control ([4]; protein PDIA3, HeLa): 1.19
- fold changes relative to vehicle control ([5]; captured protein CCNC, HeLa): 0.89
- fold changes relative to vehicle control ([6]; protein CLIC1, HeLa): 1.21
- fold changes relative to vehicle control ([7]; protein STIP1, HeLa): 1.02
- fold changes relative to vehicle control ([8]; protein HNRNPH2, HeLa): 0.93

SMILES: CCCCCCOc1cccc(Cc2cnc(N)nc2N)c1 [compound 2]
- fold changes relative to vehicle control ([1]; protein RPL12, HeLa): 1.24
- fold changes relative to vehicle control ([2]; protein HSPA8, HeLa): 1.11
- fold changes relative to vehicle control ([3]; HeLa, protein MOCOS): 1.11
- fold changes relative to vehicle control ([4]; protein PDIA3, HeLa): 1.79
- fold changes relative to vehicle control ([5]; captured protein CCNC, HeLa): 0.9
- fold changes relative to vehicle control ([6]; protein CLIC1, HeLa): 2.13
- fold changes relative to vehicle control ([7]; protein STIP1, HeLa): 1.49
- fold changes relative to vehicle control ([8]; protein HNRNPH2, HeLa): 0.96

SMILES: Nc1nc2cccc(-c3ccccc3)c2n1Cc1ccc(Cl)c(Cl)c1 [compound 3]
- fold changes relative to vehicle control ([1]; protein RPL12, HeLa): 1.08
- fold changes relative to vehicle control ([2]; protein HSPA8, HeLa): 1
- fold changes relative to vehicle control ([3]; HeLa, protein MOCOS): 0.96
- fold changes relative to vehicle control ([4]; protein PDIA3, HeLa): 0.85
- fold changes relative to vehicle control ([5]; captured protein CCNC, HeLa): 0.93
- fold changes relative to vehicle control ([6]; protein CLIC1, HeLa): 0.87
- fold changes relative to vehicle control ([7]; protein STIP1, HeLa): 0.87
- fold changes relative to vehicle control ([8]; protein HNRNPH2, HeLa): 1.05

SMILES: NCCOCCOCC(=O)Nc1nc2ncc(CNc3ccc(C(=O)NC(CCC(=O)O)C(=O)O)cc3)nc2c(=O)[nH]1 (centres unmarked) [compound 6]
- fold changes relative to vehicle control ([1]; HeLa, captured protein RPL12): 1.12
- fold changes relative to vehicle control ([2]; HeLa, captured protein HSPA8): 0.98
- fold changes relative to vehicle control ([3]; HeLa, protein MOCOS): 1.11
- fold changes relative to vehicle control ([4]; protein PDIA3, HeLa): 1.15
- fold changes relative to vehicle control ([5]; HeLa, protein CCNC): 0.94
- fold changes relative to vehicle control ([6]; HeLa, protein CLIC1): 1.44
- fold changes relative to vehicle control ([7]; protein STIP1, HeLa): 1.13
- fold changes relative to vehicle control ([8]; HeLa, captured protein HNRNPH2): 0.83

SMILES: NCCCNc1ccc(C(=O)NC(CCC(=O)O)C(=O)O)cc1 (centres unmarked) [compound 7]
- fold changes relative to vehicle control ([1]; HeLa, captured protein RPL12): 0.97
- fold changes relative to vehicle control ([2]; HeLa, captured protein HSPA8): 0.99
- fold changes relative to vehicle control ([3]; HeLa, protein MOCOS): 1.06
- fold changes relative to vehicle control ([4]; protein PDIA3, HeLa): 0.85
- fold changes relative to vehicle control ([5]; HeLa, protein CCNC): 0.95
- fold changes relative to vehicle control ([6]; HeLa, protein CLIC1): 0.99
- fold changes relative to vehicle control ([7]; protein STIP1, HeLa): 0.92
- fold changes relative to vehicle control ([8]; HeLa, captured protein HNRNPH2): 0.91

Reference: paper PMC6199744, “Development of Chemical Proteomics for the Folateome and Analysis of the Kinetoplastid Folateome” (ACS Infectious Diseases, 2018)
